Laboratory results from patent US10160771B2, “Hepatitis C virus inhibitors and uses thereof in preparation of drugs” (priority 2014, dated 2018).

Assays:
[1] = system: HCV genotype 1a (HCV-1a) replicon cells; assay: HCV genotype 1a replicon luciferase assay (EC50); type: cell-based, hepatitis C virus genotype 1a (H77 clone); details: Hepatitis C virus, 72 h, 3 days, luciferase (Bright-Glo)
Summary of the method: (§1)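 EC50 by nonlinear fitting of % inhibition from Bright-Glo luciferase signal after 3-day, 37° C. compound exposure (5-fold, 6 points from 100, 10 or 1 nM; 0.5% DMSO; duplicates). Cells: 1a replicon from H77 (K1691R/K2040R/S2204I) or 1b from Con1 (E1202G/T1280I/K1846T), 8000 per well.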

[2] = system: HCV genotype 1b (HCV-1b) replicon cells; assay: HCV genotype 1b replicon luciferase assay (EC50); type: cell-based, hepatitis C virus genotype 1b (Con1 clone); details: 3 days, luciferase (Bright-Glo)
Summary of the method: as §1

[3] = Cell Titer-fluor cell activity assay in HCV-1b replicon cells (CC50); type: cell-based
Summary of the method: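 CC50 derived by nonlinear fitting of inhibition % from Cell Titer-fluor signal (405/515 nm, 30 min). Cells: genotype 1b Con1 replicon carrying E1202G, T1280I, K1846T, seeded 8000/well with compound for 3 days, 37 °C, 0.5% DMSO; 6 points, 5-fold dilution, top 100, 10 or 1 nM, duplicates.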

| SMILES | EC50 [1] [nM] | EC50 ([2]; Hepatitis C virus, 72 h) [nM] | CC50 at 3 days [3] [nM] | EC50 [2] [nM] |
| --- | --- | --- | --- | --- |
| COC(=O)N[C@H](C(=O)N1CCC[C@H]1c1ncc(-c2ccc(-c3ccc(-c4cnc([C@@H]5[C@H]6CC[C@H](C6)[C@H]5C(=O)NCc5nccs5)[nH]4)cc3)cc2)[nH]1)C(C)C [AA_208_ENDOA2] | 0.101 to 1 | 0.001 to 0.1 | > 1 |  |
| COC(=O)N[C@H](C(=O)N1CCC[C@H]1c1ncc(-c2ccc(-c3ccc(-c4cnc(C5C6CCC(C6)[C@@H]5C(=O)NCc5cccnc5C(C)C)[nH]4)cc3)cc2)[nH]1)[C@@H](C)OC (stereo partly drawn) [AA_245_B] | 10 to 100 | 0.101 to 1 | > 1 |  |
| COC(=O)N[C@H](C(=O)N1CCC[C@H]1c1ncc(-c2ccc(-c3ccc(-c4cnc(C5C6CCC(C6)[C@@H]5C(=O)NCCO)[nH]4)cc3)cc2)[nH]1)[C@@H](C)OC (stereo partly drawn) [AA_220_B] | 10 to 100 | 1 to 10 | > 1 |  |
| COC(=O)N[C@H](C(=O)N1CCC[C@H]1c1ncc(-c2ccc3c(c2)C(=O)c2cc(-c4cnc(C5C6CCC(C6)[C@H]5C(=O)NCc5cccnc5)[nH]4)ccc2-3)[nH]1)C(C)C (stereo partly drawn) [AA_239] | 1 to 10 | 0.001 to 0.1 | > 1 |  |
| COC(=O)N[C@H](C(=O)N1CCC[C@H]1c1ccc(-c2ccc(-c3ccc(-c4cnc([C@H](C)NC(=O)[C@@H](NC(=O)OC)[C@@H](C)OC)[nH]4)cc3)cc2)[nH]1)C(C)OC (stereo partly drawn) [AG_112] | 1 to 10 | 0.001 to 0.1 | > 1 |  |
| COC(=O)NC(C(=O)N1CCCC1c1[nH]c(-c2ccc(-c3ccc(-c4cnc([C@@H]5CCCN5C(=O)[C@@H](NC(=O)OC)C(C)C)[nH]4)cc3)cc2)c2c1CCCC2)C1CCOC1 (stereo partly drawn) [AG_027] | 10 to 100 | 0.101 to 1 | > 10 |  |
| COC(=O)N[C@H](C(=O)N1CCC[C@H]1c1ncc(-c2ccc(-c3ccc(-c4cnc([C@H]5C6CCC(C6)[C@@H]5C(=O)NCCc5ccncc5)[nH]4)cc3)cc2)[nH]1)C(C)C (stereo partly drawn) [AA_209_A] | 10 to 100 | 0.001 to 0.1 | > 1 |  |
| COC(=O)N[C@H](C(=O)N1CCC[C@H]1c1ncc(-c2ccc(-c3ccc(-c4cnc([C@@H]5C6CCC(C6)[C@H]5C(=O)NCc5ccccc5)[nH]4)cc3)cc2)[nH]1)C(C)C (stereo partly drawn) [AA_207_B] | 10 to 100 | 0.001 to 0.1 | > 1 |  |
| COC(=O)N[C@H](C(=O)N1CCC[C@H]1c1ncc(-c2ccc(-c3ccc(-c4cnc([C@H]5C6CCC(C6)[C@@H]5C(=O)NCc5cnccn5)[nH]4)cc3)cc2)[nH]1)C(C)C (stereo partly drawn) [AA_206_A] | 0.101 to 1 | 0.001 to 0.1 | > 1 |  |
| COC(=O)N[C@H](C(=O)N1CCC[C@H]1c1ncc(-c2ccc(-c3ccc(-c4cnc([C@H]5C6CCC(C6)[C@@H]5C(=O)NCc5ccc(N)cc5)[nH]4)cc3)cc2)[nH]1)[C@@H](C)OC (stereo partly drawn) [AA_227] | 10 to 100 | 0.101 to 1 | > 1 |  |
| COC(=O)N[C@H](C(=O)N1CCC[C@@H]1c1[nH]c(-c2ccc(-c3ccc(-c4cnc([C@@H]5CCCN5C(=O)[C@@H](NC(=O)OC)C(C)C)[nH]4)cc3)cc2)c2c1CCO2)C(C)C [AG_122_B] | 10 to 100 | 0.101 to 1 | > 1 |  |
| COC(=O)N[C@H](C(=O)N1CCC[C@H]1c1ncc(-c2ccc(-c3ccc(-c4cnc([C@@H]5C6CCC(C6)[C@H]5C(=O)NCc5cccnc5)[nH]4)cc3)cc2C)[nH]1)C(C)C (stereo partly drawn) [AA_211_B] | 1 to 10 | 0.001 to 0.1 | > 1 |  |
| COC(=O)N[C@H](C(=O)N1CCC[C@H]1c1ncc(-c2ccc(-c3ccc(-c4cnc(C5CCCC[C@H]5C(=O)NCc5cccnc5)[nH]4)cc3)cc2)[nH]1)C(C)C (stereo partly drawn) [AA_113] | 1 to 10 | 0.101 to 1 | > 10 |  |
| COC(=O)N[C@H](C(=O)N1CCC[C@H]1c1ncc(-c2ccc(-c3ccc(-c4cnc([C@@H]5C6CCC(C6)[C@H]5C(=O)NCc5cccnc5F)[nH]4)cc3)cc2)[nH]1)C(C)C (stereo partly drawn) [AA_224_B] | 1 to 10 | 0.001 to 0.1 | > 1 |  |
| COC(=O)N[C@H](C(=O)N1CCC[C@H]1c1ncc(-c2ccc(-c3ccc(-c4ccc([C@@H]5CCCN5C(=O)N(NC(=O)OC)C(C)C)[nH]4)cc3)cc2)[nH]1)C(C)C [AG_081_A] | 10 to 100 | 0.101 to 1 | > 5 |  |
| COC(=O)N[C@H](C(=O)N1CCC[C@H]1c1ncc(-c2ccc(-c3ccc(-c4cnc([C@@H]5[C@H]6CC[C@H](C6)[C@H]5C(=O)NCc5cccnc5)[nH]4)cc3)cc2)[nH]1)C(C)C [AA_162_ENDOA2] | 0.101 to 1 | 0.001 to 0.1 | > 1 |  |
| COC(=O)N[C@H](C(=O)N1CCC[C@H]1c1[nH]c(-c2ccc(-c3ccc(-c4cnc([C@@H]5CCCCN5C(=O)[C@@H](NC(=O)OC)[C@@H](C)OC)[nH]4)cc3)cc2)c2c1CCCO2)C(C)C [AG_121] | 10 to 100 | 0.001 to 0.1 | > 1 |  |
| COC(=O)N[C@H](C(=O)N1CCC[C@H]1c1ncc(-c2ccc(-c3ccc(-c4cnc(C5C6CCC(C6)[C@@H]5C(=O)NC(C)c5cccnc5)[nH]4)cc3)cc2)[nH]1)C(C)OC (stereo partly drawn) [AA_251_B] | 1 to 10 | 0.101 to 1 | > 1 |  |
| COC(=O)N[C@H](C(=O)N1CCC[C@H]1c1ncc(-c2ccc(-c3ccc(-c4cnc([C@H]5C6CCC(C6)[C@@H]5C(=O)N(C)c5ccccn5)[nH]4)cc3)cc2)[nH]1)C(C)C (stereo partly drawn) [AA_195_A] | 0.101 to 1 | 0.001 to 0.1 | > 1 |  |
| COC(=O)N[C@H](C(=O)N1CCC[C@H]1c1ncc(-c2ccc(-c3ccc(-c4cnc([C@H]5C6CCC(C6)[C@@H]5C(=O)Nc5ccccc5)[nH]4)cc3)cc2)[nH]1)C(C)C (stereo partly drawn) [AA_237_A] | 10 to 100 | 0.101 to 1 | > 1 |  |
| COC(=O)N[C@H](C(=O)N1CCC[C@H]1c1ncc(-c2ccc(-c3ccc(-c4cnc(C5C6CCC(C6)[C@H]5C(=O)NCc5ccncc5)[nH]4)cc3)cc2)[nH]1)[C@@H](C)OC (stereo partly drawn) [AA_248_A] | 10 to 100 | 0.101 to 1 | > 1 |  |
| COC(=O)N[C@H](C(=O)N1CCC[C@H]1c1[nH]c(-c2ccc(-c3ccc(-c4[nH]c([C@@H]5CCCN5C(=O)[C@@H](NC(=O)OC)[C@@H](C)OC)c5c4COC5)cc3)cc2)c2c1COC2)[C@@H](C)OC [AG_088_A] | 0.101 to 1 | 0.001 to 0.1 | > 1 |  |
| COC(=O)N[C@H](C(=O)N1CCC[C@H]1c1ncc(-c2ccc(-c3ccc(-c4cnc([C@@H]5C6CCC(C6)[C@H]5C(=O)NCc5ccc(C(C)C)nc5)[nH]4)cc3)cc2)[nH]1)C(C)C (stereo partly drawn) [AA_236_B] | 10 to 100 | 0.101 to 1 | > 1 |  |
| COC(=O)N[C@H](C(=O)N1CCC[C@H]1c1ncc(-c2ccc(-c3ccc(-c4cnc([C@@H]5[C@H]6CC[C@H](C6)[C@H]5C(=O)NN(C(=O)OC)C(C)C)[nH]4)cc3)cc2)[nH]1)C(C)C [AA_299_ENDOA2] | 10 to 100 | 0.001 to 0.1 | > 1 |  |
| COC(=O)NC(C(=O)N1CCCC1c1[nH]c(-c2ccc(-c3ccc(-c4cnc([C@@H]5CCCN5C(=O)[C@@H](NC(=O)OC)C(C)C)[nH]4)cc3)cc2)c2c1CCC2)C1CCOC1 (single isomer, unassigned) [AG_025_A] | 10 to 100 |  | > 10 | 0.001 to 0.1 |
| COC(=O)N[C@H](C(=O)N1CCC[C@H]1c1ncc(-c2ccc(-c3ccc(-c4cnc(C5C6CCC(C6)[C@H]5C(=O)N(NC(=O)OC)C(C)C)[nH]4)cc3)c(OC)c2)[nH]1)C(C)C (stereo partly drawn) [AA_190_B] | 10 to 100 | 0.101 to 1 | > 1 |  |
| COC(=O)N[C@H](C(=O)N1CCC[C@H]1c1ncc(-c2ccc(-c3ccc(-c4cnc([C@@H]5[C@H]6CC[C@H](C6)[C@H]5C(=O)N[C@@H](C)c5cnccn5)[nH]4)cc3)cc2)[nH]1)C(C)C [AA_270_ENDOA2_A] | 0.001 to 0.1 | 0.001 to 0.1 | > 1 |  |
| COC[C@H](NC(=O)OC)C(=O)N1CCC[C@H]1c1ncc(-c2ccc(-c3ccc(-c4[nH]c([C@@H]5CCCN5C(=O)[C@@H](NC(=O)OC)C(C)C)c5c4CCC5)cc3)cc2)[nH]1 [AG_091] | 1 to 10 | 0.001 to 0.1 | > 1 |  |
| COC(=O)N[C@H](C(=O)N1CCC[C@H]1c1cnc(-c2ccc(-c3ccc(-c4ncc(C5C6CCC(C6)[C@H]5C(=O)N(NC(=O)OC)C(C)C)[nH]4)cc3)cc2OC)[nH]1)C(C)C (stereo partly drawn) [AA_166_A] | 10 to 100 | 0.001 to 0.1 | > 5 |  |
